The structures appear in SMILES notation. Read-outs that look alike come from different tables or passages of the source.

The subject of data set [1] is writhing syndrome in dd-strain male mice. Kind of data set: Analgetic effect (acetic acid writhing syndrome). The format is in vivo. Conditions: Mus musculus, ip, read-out: analgetic effect ED50 (95 % C.L.), i.p. For orientation: Writhing tests count abdominal constrictions after an irritant is injected.
The subject of data set [2] is carrageenin edema in Wistar-strain male rats. Nature of the data set: Anti-inflammatory effect (carrageenin edema of the hind paw). The format is in vivo. The note with it: Rattus norvegicus, po, rats, edema volume 3 hours after carrageenin; for inhibition in vivo at 10 mg/kg: 10 mg/kg orally, read-out: anti-inflammatory effect dose(mg/kg) 10 (inhibition percentage of carrageenin edema); for inhibition in vivo at 50 mg/kg: 50 mg/kg orally, read-out: anti-inflammatory effect dose(mg/kg) 50 (inhibition percentage of carrageenin edema). The procedure: 2. Anti-inflammatory effect
A group of five Wistar-strain male rats (100-150 g) were orally administered with each test compound suspended in 0.5% tragacanth-saline solution. After 30 minutes 0.5-1.0% carrageenin suspended in the water for injection was injected subcutaneously to a hind paw. After 3 hours the carrageenin edema was measured by volume and the inhibition percentage was determined with respect to the results for the control animals. The inhibition percentages were shown with the notations as follows: […]
In general terms: In the carrageenan paw model, swelling and tenderness develop within hours.

The next data set concerns dd-strain male mice. Conditions: deaths 72 hours after administration. Here is the method:
The lethal dose was estimated from the death of animals 72 hours after administration.

The test system of data set [3] is righting reflex of dd-strain male mice. Kind of data set: Central nervous system depressive effect (disappearance of righting reflex). The format is in vivo. The note with it: Mus musculus, ip; intraperitoneally, mice; read-out: C N S depressive effect (dose required for the disappearance of righting reflex). Here is the method:
4. Central nervous system depressive effect
Each test compound suspended in 0.5% tragacanth-saline solution was injected intraperitoneally to dd-strain male mice (16-24 g). The disappearance of righting reflex was observed under noiseless circumstances. The dose required for the disappearance of righting reflex is indicated with the following notations: […]

In data set [4] the test system is writhing syndrome in dd-strain male mice. Nature of the data set: Analgetic effect (acetic acid writhing syndrome). The format is in vivo. The note with it: Mus musculus, po, orally, 0.6% acetic acid writhing, Litchfield-Wilcoxon, read-out: analgetic effect ED50 (95 % C.L.). Here is the method: 3. Analgetic effect Each test compound suspended in 0.5% tragacanth-saline solution was orally administered to dd-strain male mice (18-20 g). After one hour 0.6% acetic acid solution was intraperitoneally injected in a volume of 0.1 ml/10 g.

With `Cc1c(N(C)C)c(=O)n(-c2ccccc2)n1C` [aminopyrine, reference compound], in data set [1], the ED50 stood at 56 mg/kg. Besides, in data set [2], the inhibition in vivo at 10 mg/kg is less than 15% and the inhibition in vivo at 50 mg/kg is less than 15%. Besides, the “acute toxicity i.p. (lethal dose)” value in the data set on dd-strain male mice was in the range of 100 to 300 mg/kg.

Regarding `CCN1Cc2cccnc2N(c2cccc(Br)c2)C1=O` [drawing 134/C2 H5], in data set [3], the minimal effective dose is less than 3 mg/kg. In addition, in data set [2], the inhibition in vivo at 10 mg/kg lay in the range of 46 to 60% and the inhibition in vivo at 50 mg/kg is 46 to 60%. For the same compound, the ED50 in data set [4] was 2.85 mg/kg. In the data set on dd-strain male mice, the “acute toxicity i.p. (lethal dose)” value was 100 300 mg/kg.

In the case of `CCCN1Cc2cccnc2N(c2cccc(Br)c2)C1=O` [drawing 134/CH2 CH2 CH3], in data set [3], the minimal effective dose lay in the range of 3 to 10 mg/kg. In addition, in data set [2], the inhibition in vivo at 10 mg/kg lay within 46 to 60% and the inhibition in vivo at 50 mg/kg was 46 to 60%. Besides, the ED50 in data set [4] came to 2.65 mg/kg. In the data set on dd-strain male mice, the “acute toxicity p.o. (lethal dose)” value is on record as less than 2000 mg/kg.

Turning to `O=C1N(CCO)Cc2cccnc2N1c1cccc(C(F)(F)F)c1` [drawing 135/CH2 CH2 OH], in data set [3], the minimal effective dose was more than 1000 mg/kg. Further, the inhibition in vivo at 50 mg/kg in data set [2] fell in the range of 16 to 30%. Further, in data set [4], the median effective dose (ED50) was found to be 55 mg/kg. For the same compound, in the data set with dd-strain male mice, the “acute toxicity i.p. (lethal dose)” value is more than 1000 mg/kg and the “acute toxicity p.o. (lethal dose)” value is given as more than 2000 mg/kg.

Regarding `CN1Cc2cccnc2N(c2cccc(C(F)(F)F)c2)C1=O` [drawing 135/CH3, 1-(m-trifluoromethylphenyl)-3-methyl-2-oxo-1,2,3,4-tetrahydropyrido[2,3-d]pyrimidine], in data set [3], the minimal effective dose was 3 to 10 mg/kg. For the same compound, in data set [2], the inhibition in vivo at 10 mg/kg fell in the range of 16 to 30% and the inhibition in vivo at 50 mg/kg is 46 to 60%. Besides, the 50% effective dose (ED50) in data set [4] is 6.6 mg/kg. The “acute toxicity p.o. (lethal dose)” value with dd-strain male mice was less than 500 mg/kg.

For the compound `O=C(O)c1ccccc1Nc1cccc(C(F)(F)F)c1` [flufenamic acid, reference compound], the minimal effective dose in data set [3] is more than 1000 mg/kg. Besides, in data set [2], the inhibition in vivo at 10 mg/kg is less than 15% and the inhibition in vivo at 50 mg/kg lay within 16 to 30%. The ED50 in data set [4] amounted to 180 mg/kg. Further, the “acute toxicity i.p. (lethal dose)” value in the data set with dd-strain male mice lay in the range of 300 to 1000 mg/kg.

In general, ED50 refers to the midpoint of the dose-response relation.

Values taken from patent US4009166A, “Pyrido(2,3-d) pyrimidinones” (Hisamitsu Pharmaceutical Co., Inc., priority 1974, dated 1977).
